Like-named read-outs stand apart in the source and are kept apart here.
Columns and labels:
[1] = test system: clinical isolates of C. albicans resistant to FLC; experiment: Checkerboard microdilution assay (CLSI M27-A2), FLC-resistant clinical isolates; format: cell-based, Candida albicans; details: for MIC80: Candida albicans, read-out: MIC80 alone; for MIC80 / MIC80 alone: 24 h, 35 °C; for antifungal activity when tested alone: FLC-resistant isolates, drug alone; for MIC80 in combination: FLC combined with Ost
Protocol: (§1) Eleven clinical isolates of FLC-resistant C. albicans were used in this study, and C. albicans ATCC 90028 was used as a quality control. Drugs prepared in dimethyl sulfoxide (DMSO) included osthol (Shanghai Jianglai Biotechnology Co. Ltd, China) and fluconazole (Pfizer-Roerig Pharmaceuticals, New York, NY).
(§2) Assays were performed on all 11 isolates according to methods of the CLSI (formerly NCCLS) (M27-A2). The concentration of fungus suspension in RPMI 1640 medium was 10^3 CFU/ml, and the final concentration ranged from 0.125 to 64 μg/ml for FLC and 1 to 32 μg/ml for OST. Plates were incubated at 35 °C for 24 h. Optical density was measured at 630 nm and background optical densities were subtracted from each well. MIC80 were defined as the minimum inhibition concentration of the drugs that inhibited growth by 80% when compared with drug-free wells. The fractional inhibitory concentration index (FICI) were defined as the sum of the MIC80 of each drug when used in combination divided by the MIC80 of the drug used alone. Synergism and antagonism were defined by FICIs of≤ 0.5 and >4, respectively. An FICI result of > 0.5 but ≤ 4 was considered indifferent.[43]

C. albicans 103 [2] = experiment: Agar disk diffusion test; format: cell-based, Candida albicans; details: for anti-fungal activity, disk on plain agar: Ost alone
Protocol: C. albicans 103 (FLC-resistant isolate with a MIC80 of 64 μg/ml for […]) was tested by agar diffusion assay.[44] A 100 μl of C. albicans 103 in 10^6 CFU/ml suspension was spread uniformly onto the yeast extract-peptone-dextrose agar plate with or without 64 μg/ml FLC. Then, 6-mm paper disks impregnated with Ost and FLC alone or in combination were placed onto the agar surface. There was 5 μl of DMSO in control disks. Inhibition zones were measured after incubation at 35°C for 48 h. Assays were performed in duplicate.

C. albicans ATCC 90028 = experiment: Checkerboard microdilution assay, quality control strain; format: cell-based, Candida albicans; details: ATCC90028; for MIC80 in combination: FLC combined with Ost
Protocol: as §1, §2

C. albicans 103 [3] = experiment: Survival of immunosuppressed mice systemically infected with C. albicans; format: in vivo, Candida albicans; details: immunosuppressed ICR mice, 1 × 10^6 CFU i.v.; oral FLC 0.5 mg/kg/day, Ost 150 mg/kg/day, 4 d treatment
Protocol: Sixty female ICR mice (weighing 20–25 g) were prepared in the antifungal study in vivo. We followed the methods of Junius M et al. and Kenneth et al. with a few modifications.[45,46] Briefly, acute infections in immunosuppressed mice, resulting from a 80 mg/kg/day intravenous dose of cyclophosphamide 3 d before infection, then injected with 1 × 10^6 CFU C. albicans in 0.2 ml of saline intravenously. This inoculum was uniformly lethal for placebo-treated animals within a week. After inoculation, the mice were randomly separated into 6 groups (10 animals per group), including saline control group and medication administration groups (FLC, Ost-S100-NP, Ost-suspensions, Ost-suspensions plus FLC, and Ost-S100-NP plus FLC). The dosages of FLC and Ost are 0.5 mg/kg/day and 150 mg/kg/day by oral administration. Therapy was begun 2 hours post infection and last for 4 d. The survival time was calculated from the day 0 since inoculation to the day of death. Survival data were presented as Kaplan-Merier plots and analyzed with a Log-rank Test (SPSS 18; SPSS, Chicago, Illinois). A value of P < 0.05 was considered to be significant.

OC(Cn1cncn1)(Cn1cncn1)c1ccc(F)cc1F [FLC, fluconazole, reference compound]
MIC80 ([1]; isolate 32): 64 µg/mL | MIC80 ([1]; isolate 100): > 64 µg/mL | MIC80 ([1]; isolate 103): > 64 µg/mL | MIC80 ([1]; isolate 557): > 64 µg/mL | MIC80 ([1]; isolate 842): > 64 µg/mL | MIC80 ([1]; isolate 901): > 64 µg/mL | MIC80 ([1]; isolate 904): > 64 µg/mL | MIC80 ([1]; isolate 953): 64 µg/mL | MIC80 ([1]; isolate J5): > 64 µg/mL | MIC80 ([1]; isolate J28): > 64 µg/mL | MIC80 ([1]; isolate J35): 64 µg/mL | antifungal activity when tested alone [1]: weak antifungal activity | MIC80 in combination ([1]; isolate 32): 2 µg/mL | MIC80 in combination ([1]; isolate 100): 4 µg/mL | MIC80 in combination ([1]; isolate 103): 4 µg/mL | MIC80 in combination ([1]; isolate 557): 2 µg/mL | MIC80 in combination ([1]; isolate 842): 2 µg/mL | MIC80 in combination ([1]; isolate 901): 2 µg/mL | MIC80 in combination ([1]; isolate 904): 2 µg/mL | MIC80 in combination ([1]; isolate 953): 2 µg/mL | MIC80 in combination ([1]; isolate J5): 2 µg/mL | MIC80 in combination ([1]; isolate J28): 8 µg/mL | MIC80 in combination ([1]; isolate J35): 1 µg/mL | inhibition, disk on plain agar (C. albicans 103 [2]; FLC alone, 10 μg, 35°C, 48 h): only weak inhibition | MIC80 in combination (C. albicans ATCC 90028): 0.0625 µg/mL | MIC80 (C. albicans ATCC 90028; Candida albicans, 35 °C, 24 h, read-out: MIC80 alone): 0.25 µg/mL | average survival day (C. albicans 103 [3]): 8.7 days

7-methoxy-8-[3-methylpent-2-enyl] coumarin [Ost]
antifungal activity when tested alone [1]: weak antifungal activity | MIC80 alone ([1]; isolate 32): 64 µg/mL | MIC80 in combination ([1]; isolate 32): 4 µg/mL | MIC80 alone ([1]; isolate 100): 32 µg/mL | MIC80 in combination ([1]; isolate 100): 4 µg/mL | MIC80 alone ([1]; isolate 103): 64 µg/mL | MIC80 in combination ([1]; isolate 103): 4 µg/mL | MIC80 alone ([1]; isolate 557): 64 µg/mL | MIC80 in combination ([1]; isolate 557): 2 µg/mL | MIC80 alone ([1]; isolate 842): 64 µg/mL | MIC80 in combination ([1]; isolate 842): 2 µg/mL | MIC80 alone ([1]; isolate 901): 16 µg/mL | MIC80 in combination ([1]; isolate 901): 4 µg/mL | MIC80 alone ([1]; isolate 904): >64 µg/mL | MIC80 in combination ([1]; isolate 904): 4 µg/mL | MIC80 alone ([1]; isolate 953): 32 µg/mL | MIC80 in combination ([1]; isolate 953): 4 µg/mL | MIC80 alone ([1]; isolate J5): 64 µg/mL | MIC80 in combination ([1]; isolate J5): 8 µg/mL | MIC80 alone ([1]; isolate J28): 64 µg/mL | MIC80 in combination ([1]; isolate J28): 8 µg/mL | MIC80 alone ([1]; isolate J35): 32 µg/mL | MIC80 in combination ([1]; isolate J35): 8 µg/mL | mean diameter of the inhibitory zone (C. albicans 103 [2]; 8 μg Ost disk on YEPD plate containing 64 μg/ml FLC): 8 mm | mean diameter of the inhibitory zone (C. albicans 103 [2]; 16 μg Ost disk on YEPD plate containing 64 μg/ml FLC): 12 mm | mean diameter of the inhibitory zone (C. albicans 103 [2]; 32 μg Ost disk on YEPD plate containing 64 μg/ml FLC): 16 mm | mean diameter of the inhibitory zone (C. albicans 103 [2]; 64 μg Ost disk on YEPD plate containing 64 μg/ml FLC): 21 mm | anti-fungal activity, disk on plain agar (C. albicans 103 [2]; 64 μg, 35°C, 48 h): weak anti-fungal activity | anti-fungal activity, disk on plain agar (C. albicans 103 [2]; smaller dosage (below 64 μg), 35°C, 48 h): no anti-fungal activity | MIC80 alone (C. albicans ATCC 90028; 35 °C, 24 h): 8 µg/mL | MIC80 in combination (C. albicans ATCC 90028): 1 µg/mL
